Measurements: patent publication US20110124727A1, “Oxybuprocaine-Containing Analgesic/Antipruritic External Preparation” (Teikoku Seiyaku Co., LTD, priority 2008, published 2011)

Tested on: male ddy strain mouse
Test: Pharmacological test of antipruritic action using mice (Compound 48/80-induced scratching)
Conditions: for Number of times scratching occurred (mean ± standard error): counted for 30 minutes after Compound 48/80 100 μg/body s.c., oxybuprocaine in saline 10 mg/kg dorsal neck, cyproheptadine 1 mg/kg intraperitoneally, n=6

| SMILES | Antipruritic effect in words (suppression of scratching behaviors) (compared to saline control group and cyproheptadine group) | Number of times scratching occurred (mean ± standard error) |
| --- | --- | --- |
| CCCCOc1cc(C(=O)OCCN(CC)CC)ccc1N [oxybuprocaine, Oxybuprocaine] | suppressed scratching behaviors strongly | 45.8 ± 18.9 |
| CN1CCC(=C2c3ccccc3C=Cc3ccccc32)CC1 [cyproheptadine] |  | 76.7 ± 21.3 |
